Results reported in publication PMC6028563, “Probing Substituents in the 1- and 3-Position: Tetrahydropyrazino-Annelated Water-Soluble Xanthine Derivatives as Multi-Target Drugs With Potent Adenosine Receptor Antagonistic Activity” (Frontiers in Chemistry, 2018).

Legend:
rat A1 AR = target: T1, rat A1 AR (Rattus norvegicus, UniProt P25099); assay: Radioligand binding assay at rat A1 AR (rat brain cortex) vs. [^3H]CCPA; settings: rat (r); rat brain cortex; n = 3
T1 construct: A1 ARs of rat brain cortical membrane; from tissue; host or cells: rat brain cortex membranes
T1 sequence (P25099 1-326): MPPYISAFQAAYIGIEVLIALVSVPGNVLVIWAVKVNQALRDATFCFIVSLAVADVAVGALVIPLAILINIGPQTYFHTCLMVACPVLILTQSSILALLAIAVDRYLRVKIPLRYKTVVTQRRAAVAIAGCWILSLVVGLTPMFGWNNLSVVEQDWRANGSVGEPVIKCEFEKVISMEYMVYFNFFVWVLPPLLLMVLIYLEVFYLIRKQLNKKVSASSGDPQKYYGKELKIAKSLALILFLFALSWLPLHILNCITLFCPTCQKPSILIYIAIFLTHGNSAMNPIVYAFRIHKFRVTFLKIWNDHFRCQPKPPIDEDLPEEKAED
How it was run: (§1)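 Rat A1 affinity was measured on cortical membranes and rat A2A on striatal membranes from rat brain. Human A1, A2A, A2B and A3 subtypes were tested on membranes of CHO cells recombinantly expressing each receptor. No functional assays were run, as these xanthine-type compounds act only as blockers.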

rat A2A AR = target: T2, rat A2A AR (Rattus norvegicus, UniProt P30543); assay: Radioligand binding assay at rat A2A AR (rat brain striatum) vs. [^3H]MSX-2; settings: rat (r); for % inhibition of radioligand binding at indicated concentration, A2A vs. [^3H]MSX-2: at 1,000 nM; for Ki: rat brain striatum, n = 3, read-out: Ki ± SEM, A2A vs. [^3H]MSX-2
T2 construct: A2A ARs of rat brain striatal membrane preparations; from tissue; host or cells: rat brain striatum membranes
How it was run: as §1

human A2B AR = target: T3, human A2B AR (Homo sapiens, UniProt P29275); assay: Radioligand binding assay at human A2B AR vs. [^3H]PSB-603; settings: for Ki: CHO cell membranes, n = 2 (n = 3 where marked a), read-out: Ki ± SEM, A2B vs. [^3H]PSB-603; for inhibition at 1 µM: at 1,000 nM; for inhibition at 1 µM / inhibition at 0.1 µM: read-out: % inhibition of radioligand binding at indicated concentration, A2B vs. [^3H]PSB-603; for inhibition at 0.1 µM: at 100 nM
T3 construct: expressed in transfected cells; host or cells: CHO cells
T3 sequence (P29275 1-332): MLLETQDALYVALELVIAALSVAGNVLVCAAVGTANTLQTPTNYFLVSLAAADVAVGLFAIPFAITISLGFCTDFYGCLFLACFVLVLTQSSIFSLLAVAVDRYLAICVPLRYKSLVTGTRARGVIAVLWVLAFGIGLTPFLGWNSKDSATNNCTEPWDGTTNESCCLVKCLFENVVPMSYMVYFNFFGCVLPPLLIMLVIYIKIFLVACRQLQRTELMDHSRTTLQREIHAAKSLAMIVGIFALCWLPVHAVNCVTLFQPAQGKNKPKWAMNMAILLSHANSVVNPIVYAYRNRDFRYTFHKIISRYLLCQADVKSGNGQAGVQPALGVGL
How it was run: as §1

human A3 AR = target: T4, human A3 AR (Homo sapiens, UniProt P0DMS8); assay: Radioligand binding assay at human A3 AR vs. [^3H]PSB-11; settings: for Ki: CHO cell membranes, n = 2 (n = 3 where marked a), read-out: Ki ± SEM, A3 vs. [^3H]PSB-11; for inhibition at 10 µM: at 10,000 nM, read-out: % inhibition of radioligand binding at indicated concentration, A3 vs. [^3H]PSB-11
T4 construct: expressed in transfected cells; host or cells: CHO cells
T4 sequence (P0DMS8 1-318): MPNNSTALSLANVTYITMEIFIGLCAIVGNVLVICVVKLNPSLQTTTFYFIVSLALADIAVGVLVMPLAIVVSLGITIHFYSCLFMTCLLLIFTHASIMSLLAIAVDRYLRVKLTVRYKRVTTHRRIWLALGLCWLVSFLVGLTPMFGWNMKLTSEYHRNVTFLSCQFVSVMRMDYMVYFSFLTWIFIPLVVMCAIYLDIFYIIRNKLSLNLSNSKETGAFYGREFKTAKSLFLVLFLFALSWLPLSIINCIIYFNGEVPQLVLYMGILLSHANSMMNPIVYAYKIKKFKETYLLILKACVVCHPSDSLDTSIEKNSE
How it was run: as §1

recombinant human MAO-B = target: T5, recombinant human MAO-B (Homo sapiens, UniProt P27338); assay: Monoamine oxidase assay (Amplex Red), MAO-B; type: biochemical; settings: for inhibition at 10 µM: at 10,000 nM (10 μM), read-out: % inhibition at indicated concentration, Human MAO-B; for IC50: n = 3, read-out: IC50 ± SEM, Human MAO-B
T5 construct: purchased Sigma-Aldrich M7441; host or cells: baculovirus-infected insect cells
T5 sequence (P27338 1-520): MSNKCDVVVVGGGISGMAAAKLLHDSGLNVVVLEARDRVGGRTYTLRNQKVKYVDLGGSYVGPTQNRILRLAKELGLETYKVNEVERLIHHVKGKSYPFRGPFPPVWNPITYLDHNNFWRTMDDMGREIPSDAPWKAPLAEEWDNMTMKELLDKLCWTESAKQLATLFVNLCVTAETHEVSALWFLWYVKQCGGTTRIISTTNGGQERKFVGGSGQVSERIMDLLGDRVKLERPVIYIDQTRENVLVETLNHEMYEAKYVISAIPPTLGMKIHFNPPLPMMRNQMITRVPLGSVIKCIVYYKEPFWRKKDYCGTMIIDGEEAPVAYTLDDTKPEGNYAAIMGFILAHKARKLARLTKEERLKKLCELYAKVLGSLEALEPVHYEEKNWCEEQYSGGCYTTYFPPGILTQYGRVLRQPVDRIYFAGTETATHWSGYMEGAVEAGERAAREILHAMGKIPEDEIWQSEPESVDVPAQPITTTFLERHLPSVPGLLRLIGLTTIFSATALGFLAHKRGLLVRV
How it was run: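 Recombinant human MAO-A and MAO-B, expressed in baculovirus-infected insect cells, were assayed by Amplex Red fluorometric detection. Rat MAO-B inhibition used mitochondria-enriched fractions from male Sprague Dawley rat liver.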

T2 sequence (P30543 whole entry): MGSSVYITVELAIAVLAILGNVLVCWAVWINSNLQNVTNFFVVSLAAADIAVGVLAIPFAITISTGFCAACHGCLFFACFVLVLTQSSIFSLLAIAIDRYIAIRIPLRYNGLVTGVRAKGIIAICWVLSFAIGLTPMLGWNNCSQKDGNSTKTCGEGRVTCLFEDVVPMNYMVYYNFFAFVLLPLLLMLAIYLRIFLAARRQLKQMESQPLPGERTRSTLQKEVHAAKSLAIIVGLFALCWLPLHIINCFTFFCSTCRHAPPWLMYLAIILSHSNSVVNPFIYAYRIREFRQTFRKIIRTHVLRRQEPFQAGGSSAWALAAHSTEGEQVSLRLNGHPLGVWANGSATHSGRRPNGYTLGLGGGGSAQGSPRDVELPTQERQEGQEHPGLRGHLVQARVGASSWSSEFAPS

Compound	Ki (rat A1 AR) [µM]	% inhibition of radioligand binding at indicated concentration, A2A vs. [^3H]MSX-2 (rat A2A AR) [%]	Ki (rat A2A AR) [µM]	Ki (human A2B AR) [µM]	inhibition at 1 µM (human A2B AR) [%]	Ki (human A3 AR) [µM]	inhibition at 10 µM (recombinant human MAO-B) [%]	IC50 (recombinant human MAO-B) [µM]	inhibition at 0.1 µM (human A2B AR) [%]	inhibition at 10 µM (human A3 AR) [%]
CCn1c(=O)c2c(nc3n2CCN(Cc2ccccc2C(F)(F)F)C3)n(C)c1=O [Compound 14d, 3-ethyl-1-methyl-8-(2-(trifluoromethyl)benzyl)-6,7,8,9-tetrahydropyrazino[2,1-f]purine-2,4(1H,3H)-dione]	0.114 ± 0.015	20	> 1	> 1	2	8.76	49	≥ 10	–	–
CCn1c(=O)c2c(nc3n2CCN(Cc2ccc(Br)cc2)C3)n(C)c1=O [Compound 14c, 8-(4-bromobenzyl)-3-ethyl-1-methyl-6,7,8,9-tetrahydropyrazino[2,1-f]purine-2,4(1H,3H)-dione]	0.156 ± 0.021	35	> 1	> 1	1	9.39	–	1.63	–	–
CCn1c(=O)c2c(nc3n2CCN(Cc2cccc(F)c2)C3)n(C)c1=O [Compound 14g, 3-ethyl-8-(3-fluorobenzyl)-1-methyl-6,7,8,9-tetrahydropyrazino[2,1-f]purine-2,4(1H,3H)-dione]	0.0594 ± 0.0077	18	> 1	> 0.1	–	> 10	48	≥ 10	15	24
CCn1c(=O)c2c(nc3n2CCN(Cc2cc(Br)ccc2F)C3)n(C)c1=O [Compound 14o, 8-(5-bromo-2-fluorobenzyl)-3-ethyl-1-methyl-6,7,8,9-tetrahydropyrazino[2,1-f]purine-2,4(1H,3H)-dione]	0.036 ± 0.0184	–	0.88 ± 0.174	> 1	11	> 10	–	3.07	–	39
C#CCn1c(=O)c2c(nc3n2CCN(Cc2ccc(Cl)c(Cl)c2)C3)n(C)c1=O [Compound 19a, 8-(3,4-dichlorobenzyl)-1-methyl-3-propargyl-6,7,8,9-tetrahydropyrazino[2,1-f]purine-2,4(1H,3H)-dione]	0.292 ± 0.021	–	0.642 ± 0.194	> 1	23	5.63	–	0.679 ± 0.017	–	–
Cn1c(=O)c2c(nc3n2CCN(Cc2ccc(Cl)c(Cl)c2)C3)n(C2CC2)c1=O [Compound 17, 8-(3,4-dichlorobenzyl)-1-cyclopropyl-3-methyl-6,7,8,9-tetrahydropyrazino[2,1-f]purine-2,4(1H,3H)-dione]	0.584 ± 0.008	–	3.94	> 0.1	–	> 10	–	3.69	2	26
CCn1c(=O)c2c(nc3n2CCN(Cc2cc(C(F)(F)F)ccc2F)C3)n(CC)c1=O [Compound 15j, 1,3-diethyl-8-(2-fluoro-5-(trifluoromethyl)benzyl)-6,7,8,9-tetrahydropyrazino[2,1-f]purine-2,4(1H,3H)-dione]	0.124 ± 0.021	–	0.6 ± 0.054	> 1	27	> 10	58	< 10	–	25
CCn1c(=O)n(C)c(=O)c2c1nc1n2CCN(Cc2ccc(Cl)c(Cl)c2)C1 [Compound 16a, 8-(3,4-dichlorobenzyl)-1-ethyl-3-methyl-6,7,8,9-tetrahydropyrazino[2,1-f]purine-2,4(1H,3H)-dione]	0.236 ± 0.023	–	1.1	> 1	5	> 10	–	0.106 ± 0.01	–	19
C#CCn1c(=O)c2c(nc3n2CCN(Cc2cc(C(F)(F)F)ccc2Cl)C3)n(C)c1=O [Compound 19b, 8-(2-chloro-5-(trifluoromethyl)benzyl)-1-methyl-3-propargyl-6,7,8,9-tetrahydropyrazino[2,1-f]purine-2,4(1H,3H)-dione]	0.153 ± 0.01	–	0.414 ± 0.049	> 1	3	> 10	59	< 10	–	25
